Experimental data reported in patent US8415342B2, “Besifloxacin ophthalmic composition for the treatment or control of infection” (Bausch & Lomb Incorporated, priority 2008, dated 2013).
≈ marks a conversion by molar mass, not a printed value. Where two headings read alike, the source gives them in different places.

Key:
Format in all cases: cell-based
Streptococcus oralis = experiment: MIC of clinical trial isolates, Studies 373, 433, 434; details: N 18
Description: (§1) PFGE testing was performed per standard procedures.
(§2) The antibacterial susceptibility profile of each Visit 1 bacterial isolate was determined for besifloxacin and other antimicrobials.

S. mitis group = experiment: as above; details: Streptococcus mitis group, N 45
Description: as §1, §2

H. influenzae [1] = experiment: as above; details: Haemophilus influenzae, all phenotypes, N 344
Description: as §1, §2

CDC coryneform group G = experiment: as above; details: N 29
Description: as §1, §2

S. pneumoniae [2] = experiment: as above; details: Streptococcus pneumoniae, all phenotypes, N 302
Description: as §1, §2

[3] = tested on: Staphylococcus lugdunensis; experiment: as above; details: N 8
Streptococcus mitis = experiment: as above; details: Streptococcus mitis (listed separately from S. mitis group), N 20
Description: PFGE testing was performed per standard procedures. […] Analysis Populations

Streptococcus salivarius = experiment: as above; details: N 9
[4] = tested on: Corynebacterium pseudodiphtheriticum; experiment: as above; details: N 8
S. aureus [5] = experiment: as above; details: Staphylococcus aureus
Staphylococcus hominis [6] = experiment: as above; details: N 9
[7] = tested on: baseline pathogens of bacterial conjunctivitis patients; experiment: MIC of baseline clinical trial isolates, Studies 373, 433, 434 (all species)
S. epidermidis [8] = experiment: MIC of clinical trial isolates, Studies 373, 433, 434; details: Staphylococcus epidermidis
Corynebacterium striatum = experiment: as above; details: N 8
Klebsiella oxytoca = experiment: MIC, CLSI broth microdilution, clinical isolates; details: Klebsiella oxytoca (N = 50)
S. epidermidis [9] = experiment: MIC and MBC:MIC ratio, recent ocular isolates; details: Staphylococcus epidermidis; S. epidermidis (N = 15), recent ocular isolates
Excerpt: (§3) The success of in vivo antimicrobial action depends to a large extent on the host's defense mechanisms, which ultimately sequester and kill the microorganisms that have been reduced by the bacteriostatic/bactericidal action of the antibacterial agent. Thus, it is also of interest to profile the bactericidal activity of antimicrobial agents. The assessment of in vitro bactericidal activity can be accomplished in multiple ways, for example, the time-kill method or the determination of the minimum bactericidal concentration (MBC). […] Bactericidal agents are characterized by low MBC:MIC ratios.

H. influenzae [10] = experiment: MIC and MBC:MIC ratio, recent ocular isolates; details: H. influenzae (N = 40), recent ocular isolates
Excerpt: as §3

Legionella pneumophila = experiment: microbe, parasite or virus in culture; details: Legionella pneumophila
[11] = tested on: E. coli topoisomerase mutants; experiment: MIC against defined topoisomerase mutants; details: Escherichia coli
Description: Furthermore, an experiment was conducted to assess the mechanism of action of besifloxacin in S. pneumoniae, S. aureus, and E. coli via step selections for isolates with decreased susceptibility to besifloxacin, as well as by testing for altered susceptibilities of ciprofloxacin-resistant variants of all three species containing genetically defined mutations in the quinolone resistance determining regions (QRDRs) of structural genes encoding DNA gyrase and topoisomerase IV (Table 2).

[12] = tested on: S. pneumoniae topoisomerase mutants; experiment: MIC against defined topoisomerase mutants; details: Streptococcus pneumoniae
S. pneumoniae [13] = experiment: MIC and MBC:MIC ratio, recent ocular isolates; details: S. pneumoniae (N = 35), recent ocular isolates
S. aureus [14] = experiment: MIC and MBC:MIC ratio, recent ocular isolates; details: Staphylococcus aureus; S. aureus (N = 30), recent ocular isolates
[15] = tested on: Lancefield group C, F, G streptococci; experiment: MIC, CLSI broth microdilution, clinical isolates; details: G streptococci (N = 50)
Citrobacter koseri = experiment: MIC, CLSI broth microdilution, clinical isolates; details: Citrobacter koseri (N = 100)
[16] = tested on: Staphylococcus haemolyticus; experiment: MIC, CLSI broth microdilution, clinical isolates; details: Staphylococcus haemolyticus (N = 101)
Staphylococcus warneri = experiment: MIC, CLSI broth microdilution, clinical isolates; details: Staphylococcus warneri (N = 50)
Morganella morganii = experiment: MIC, CLSI broth microdilution, clinical isolates; details: Morganella morganii (N = 51)
Viridans streptococci = experiment: MIC, CLSI broth microdilution, clinical isolates; details: Viridans streptococci (N = 156)
[17] = tested on: S. aureus topoisomerase mutants; experiment: MIC against defined topoisomerase mutants; details: Staphylococcus aureus
Moraxella catarrhalis = experiment: MIC, CLSI broth microdilution, clinical isolates; details: Moraxella catarrhalis (N = 101)
Staphylococcus hominis [18] = experiment: MIC, CLSI broth microdilution, clinical isolates; details: Staphylococcus hominis (N = 50)

SMILES: CC[C@H]1OC(=O)[C@H](C)[C@@H](O[C@H]2C[C@@](C)(OC)[C@@H](O)[C@H](C)O2)[C@H](C)[C@@H](O[C@@H]2O[C@H](C)C[C@H](N(C)C)[C@H]2O)[C@](C)(O)C[C@@H](C)CN(C)[C@H](C)[C@@H](O)[C@]1(C)O [AZITH]
- MIC50 (Streptococcus oralis): 4 µg/mL
- MIC90 (Streptococcus oralis): >8 µg/mL
- MIC50 (S. mitis group): 2 µg/mL
- MIC90 (S. mitis group): 8 µg/mL
- MIC50 (H. influenzae [1]): 2 µg/mL
- MIC90 (H. influenzae [1]): 4 µg/mL
- MIC90 (CDC coryneform group G): >8 µg/mL
- MIC90 (S. pneumoniae [2]): >8 µg/mL
- MIC50 [3]: 0.5 µg/mL
- MIC50 (Streptococcus mitis): 2 µg/mL
- MIC90 (Streptococcus mitis): 4 µg/mL
- MIC Range (Streptococcus mitis): 0.06 to 8 µg/mL
- MIC50 (Streptococcus salivarius): 8 µg/mL
- MIC50 [4]: >8 µg/mL
- MIC50 (S. aureus [5]; all phenotypes, N 190): 2 µg/mL
- MIC90 (S. aureus [5]; all phenotypes, N 190): >8 µg/mL
- MIC50 (Staphylococcus hominis [6]): 4 µg/mL
- MIC50 ([7]; All organisms, N 1324): 2 µg/mL
- MIC90 ([7]; All organisms, N 1324): >8 µg/mL
- MIC50 ([7]; Gram-negative, N 438): 2 µg/mL
- MIC90 ([7]; Gram-negative, N 438): >8 µg/mL
- MIC50 ([7]; Gram-positive, N 886): 1 µg/mL
- MIC90 ([7]; Gram-positive, N 886): >8 µg/mL
- MIC50 (S. epidermidis [8]; all phenotypes, N 111): 1 µg/mL
- MIC90 (S. epidermidis [8]; all phenotypes, N 111): >8 µg/mL

SMILES: N[C@@H]1CCCCN(c2c(F)cc3c(=O)c(C(=O)O)cn(C4CC4)c3c2Cl)C1 [BESI]
- MIC50 (Streptococcus oralis): 0.125 µg/mL
- MIC90 (Streptococcus oralis): 0.25 µg/mL
- MIC Range (Streptococcus oralis): 0.015 to 0.25 µg/mL
- MIC50 (S. mitis group): 0.125 µg/mL
- MIC90 (S. mitis group): 0.25 µg/mL
- MIC Range (S. mitis group): 0.03 to 1 µg/mL
- MIC50 (H. influenzae [1]): 0.03 µg/mL
- MIC90 (H. influenzae [1]): 0.06 µg/mL
- MIC Range (H. influenzae [1]): 0.008 to 0.5 µg/mL
- MIC50 (CDC coryneform group G): 0.015 µg/mL
- MIC90 (CDC coryneform group G): 0.125 µg/mL
- MIC Range (CDC coryneform group G): 0.008 to 2 µg/mL
- MIC50 (S. pneumoniae [2]): 0.06 µg/mL
- MIC90 (S. pneumoniae [2]): 0.125 µg/mL
- MIC Range (S. pneumoniae [2]): 0.03 to 0.25 µg/mL
- MIC50 [3]: 0.125 µg/mL
- MIC Range [3]: 0.06 to 0.5 µg/mL
- MIC50 (Streptococcus mitis): 0.125 µg/mL
- MIC90 (Streptococcus mitis): 0.125 µg/mL
- MIC Range (Streptococcus mitis): 0.06 to 0.25 µg/mL
- MIC50 (Streptococcus salivarius): 0.125 µg/mL
- MIC Range (Streptococcus salivarius): 0.06 to 0.25 µg/mL
- MIC50 [4]: 0.25 µg/mL
- MIC Range [4]: 0.015 to 0.25 µg/mL
- MIC50 (Corynebacterium striatum): 0.015 µg/mL
- MIC Range (Corynebacterium striatum): 0.015 to 0.25 µg/mL
- MIC50 (S. aureus [5]; all phenotypes, N 190): 0.03 µg/mL
- MIC90 (S. aureus [5]; all phenotypes, N 190): 0.5 µg/mL
- MIC Range (S. aureus [5]; all phenotypes, N 190): 0.008 to 8 µg/mL
- MIC50 (Staphylococcus hominis [6]): 0.06 µg/mL
- MIC Range (Staphylococcus hominis [6]): 0.03 to 0.5 µg/mL
- MIC50 ([7]; All organisms, N 1324): 0.06 µg/mL
- MIC90 ([7]; All organisms, N 1324): 0.25 µg/mL
- MIC Range ([7]; All organisms, N 1324): 0.008 to 8 µg/mL
- MIC50 ([7]; Gram-negative, N 438): 0.03 µg/mL
- MIC90 ([7]; Gram-negative, N 438): 0.5 µg/mL
- MIC Range ([7]; Gram-negative, N 438): 0.008 to 8 µg/mL
- MIC50 ([7]; Gram-positive, N 886): 0.06 µg/mL
- MIC90 ([7]; Gram-positive, N 886): 0.25 µg/mL
- MIC Range ([7]; Gram-positive, N 886): 0.008 to 8 µg/mL
- MIC50 (S. epidermidis [8]; all phenotypes, N 111): 0.06 µg/mL
- MIC90 (S. epidermidis [8]; all phenotypes, N 111): 0.5 µg/mL
- MIC Range (S. epidermidis [8]; all phenotypes, N 111): 0.03 to 4 µg/mL

SMILES: COc1c(N2C[C@@H]3CCCN[C@@H]3C2)c(F)cc2c(=O)c(C(=O)O)cn(C3CC3)c12 [Moxifloxacin]
- MIC50 (Klebsiella oxytoca): 0.06 µg/mL (≈ 0.149 µM)
- MIC90 (Klebsiella oxytoca): 2 µg/mL (≈ 4.98 µM)
- MIC Range (Klebsiella oxytoca): 0.03 to 8 µg/mL
- MIC50 (S. epidermidis [9]): 0.06 µg/mL
- MIC90 (S. epidermidis [9]): > 8 µg/mL
- MIC Range (H. influenzae [10]): 0.008 to 0.03 µg/mL
- MIC50 (H. influenzae [10]; Haemophilus influenzae): 0.015 µg/mL
- MIC90 (H. influenzae [10]; Haemophilus influenzae): 0.03 µg/mL
- MIC50 (Legionella pneumophila): 0.03 µg/mL (≈ 0.0747 µM)
- MIC90 (Legionella pneumophila): 0.06 µg/mL (≈ 0.149 µM)
- MIC ([11]; E. coli Wild type): 0.06 µg/mL (≈ 0.149 µM)
- MIC ([11]; E. coli gyrA D87Y (or S83L)): 0.5 µg/mL (≈ 1.25 µM)
- MIC ([11]; E. coli gyrA S83L + parC S80R): 4 µg/mL
- MIC ([11]; E. coli gyrA S83L + parE H445L): 0.5 µg/mL
- MIC ([11]; E. coli gyrB D426N): 0.12 µg/mL (≈ 0.299 µM)
- MIC ([12]; S. pneumoniae Wild type): 0.25 µg/mL (≈ 0.623 µM)
- MIC ([12]; S. pneumoniae gyrA S81F): 0.5 µg/mL (≈ 1.25 µM)
- MIC ([12]; S. pneumoniae parC S79Y): 0.25 µg/mL (≈ 0.623 µM)
- MIC ([12]; S. pneumoniae parC S79Y + gyrA S81F): 4 µg/mL
- MIC Range (S. pneumoniae [13]): 0.03 to 2 µg/mL
- MIC50 (S. pneumoniae [13]; Streptococcus pneumoniae): 0.06 µg/mL
- MIC90 (S. pneumoniae [13]; Streptococcus pneumoniae): 0.12 µg/mL
- MIC50 (S. aureus [14]): 0.06 µg/mL
- MIC Range [15]: 0.03 to 1 µg/mL
- MIC50 ([15]; read-out: MIC50): 0.12 µg/mL (≈ 0.299 µM)
- MIC90 ([15]; read-out: MIC90): 0.12 µg/mL (≈ 0.299 µM)
- MIC50 (Citrobacter koseri): 0.03 µg/mL (≈ 0.0747 µM)
- MIC50 [16]: 1 µg/mL (≈ 2.49 µM)
- MIC90 [16]: 8 µg/mL (≈ 19.9 µM)
- MIC90 (S. aureus [5]; MRSA, S. aureus MRSA-CS, N 9, read-out: MIC90 (due to limited isolates, highest MIC value is given)): 0.06 µg/mL
- MIC50 (Staphylococcus warneri): 0.06 µg/mL (≈ 0.149 µM)
- MIC90 (Staphylococcus warneri): 4 µg/mL (≈ 9.96 µM)
- MIC90 (Morganella morganii): > 8 µg/mL
- MIC Range (Viridans streptococci): 0.03 to 4 µg/mL
- MIC50 (Viridans streptococci; read-out: MIC50): 0.12 µg/mL (≈ 0.299 µM)
- MIC90 ([7]; clinical isolates from Asia): 2 µg/mL
- MIC ([17]; S. aureus Wild type): 0.06 µg/mL (≈ 0.149 µM)
- MIC ([17]; S. aureus parC S80F (or E84K)): 0.5 µg/mL (≈ 1.25 µM)
- MIC ([17]; S. aureus parC S80F + gyrA S84L): 2 µg/mL
- MIC50 (Moraxella catarrhalis): 0.03 µg/mL (≈ 0.0747 µM)
- MIC90 (Moraxella catarrhalis): 0.03 µg/mL (≈ 0.0747 µM)
- MIC Range (Moraxella catarrhalis): 0.015 to 0.12 µg/mL
- MIC50 (Staphylococcus hominis [18]): 1 µg/mL (≈ 2.49 µM)
- MIC90 (Staphylococcus hominis [18]): 4 µg/mL (≈ 9.96 µM)
- MIC90 (S. epidermidis [8]; MRSE, S. epidermidis MRSE-CR, N 24, read-out: MIC90): > 8 µg/mL
- MIC90 (S. epidermidis [8]; S. epidermidis MSSE-CR, N 10, read-out: MIC90): 8 µg/mL
